These results are taken from ChEMBL document CHEMBL1128795, “N-(Quinuclidin-3-yl)-2-(1-methyl-1H-indol-3-yl)-2-oxo-acetamide: a high affinity 5-HT3 receptor partial agonist” (Bioorg Med Chem Lett, 1995).

Molecules are shown by their SMILES. pEC50: −log10 of the molar value.

Format in all cases: functional
The species entered for assay [1] is Rattus norvegicus. The experiment in a line: Tested for maximum response in depolarization of isolated rat vagus nerve measured at dose 10 uM.
The species entered for assay [2] is Rattus norvegicus. Briefly: Tested for effective concentration against 5-HT mediated depolarization of isolated rat vagus nerve.
The target of assay [3] is T1, Serotonin 3 (5-HT3) receptor (Rattus norvegicus) (UniProt P35563+Q9JJ16). The experiment in a line: Agonist activity against 2-methyl-5-HT induced bradycardia (von Bezold-Jarisch (B-J) reflex) in anesthetized rats.
Assay [4] deals with T1, Serotonin 3 (5-HT3) receptor (Rattus norvegicus). Briefly: Tested for % decrease in heart rate relative to pre-dose control against 2-methyl-5-HT induced bradycardia (von Bezold-Jarisch (B-J) reflex) in anesthetized rats. Further details: scale not given: the % may be the effect or the level left.

Compound `NCCc1c[nH]c2ccc(O)cc12` [SEROTONIN] gave a Max response in the assay listed under Rattus norvegicus [1] of 340 uV. Moreover, the pEC50 in the assay listed under Rattus norvegicus [2] was 6.01.

In assay [3], `Cc1[nH]c2ccc(O)cc2c1CCN` had a 50% effective dose (ED50) of 7.7 µg/kg. The compound also yielded a Max response in the assay listed under Rattus norvegicus [1] of 363 uV. The negative logarithm of the EC50 (pEC50) in the assay listed under Rattus norvegicus [2] is 5.21. The compound also gave a Control in assay [4] of 58%.

A word on the pEC50: it is −log10 of the EC50, conventionally taken in molar units. The ED50 is the dose at which the effect has come halfway, by size or by number of responders.
